Consider 22 molecules from publication PMC5789092 (Scientific Reports, 2018).

The test system of data set [1] is HepG2 (human liver cancer). Put plainly: SRB cytotoxicity assay, HepG2. Type of data set: cell-based. The conditions noted are these: 72 h.
The test system of data set [2] is HEp-2 (human larynx epidermal cancer). The data set can be described thus: SRB cytotoxicity assay, HEp-2. Type of data set: cell-based. The conditions noted are these: 72 h, mean ± SD. From the text:
(§1) All the synthesized derivatives of 1 and 2 were screened for their anticancer activities against four human cancer cell lines (HeLa, PC-3, HEp-2 and HepG2) and two normal cell lines (CHO and HUVEC) using the sulforhodamine B (SRB) assay.
(§2) PC-3 (human prostate cancer), HepG2 (human liver cancer) and CHO (Chinese hamster ovary) cell lines were obtained from Shanghai Institute of Biochemistry and Cell Biology, Chinese Academy of Sciences. HeLa (human cervix cancer), HUVEC (human umbilical vein endothelial cells) and HEp-2 (human laryngeal cancer) cell lines were granted by Prof. Lei of college of life sciences, Northwest A&F University. The six cell lines were grown in RPMI-1640 (Gibco) containing 10% (v/v) thermally inactivated fetal bovine serum (FBS), penicillin (100 KU/L) and streptomycin (100 KU/L) at 37 °C in a 5% CO2 humidified incubator.
(§3) In vitro cytotoxicity was assessed by using the SRB colorimetric assay refer to previous methods[19],[42].

In data set [3] the test system is HeLa (human cervix cancer). The data set can be described thus: SRB cytotoxicity assay, HeLa. In kind it is cell-based. As to conditions: 72 h, mean ± SD.
Data set [4] deals with PC-3 (human prostate cancer). The data set can be described thus: SRB cytotoxicity assay, PC-3. Type of data set: cell-based. As to conditions: 72 h.
Data set [5] has as its system CHO (Chinese hamster ovary). Put plainly: SRB cytotoxicity assay, CHO normal cells. Type of data set: cell-based. As to conditions: Cricetulus griseus, 72 h, normal cell line.
Source text: as §1, §2, §3

Data set [6] deals with HUVEC (human umbilical vein endothelial cell). The data set can be described thus: SRB cytotoxicity assay, HUVEC normal cells. In kind it is cell-based. As to conditions: Homo sapiens, HUVEC; 72 h, SRB, normal cell line.
The subject of data set [7] is HeLa, PC-3, HEp-2 and HepG2 cells. The data set can be described thus: SRB cytotoxicity, summary over the cancer cell lines. In kind it is cell-based, human.
Data set [8] has as its system HEp-2 (human larynx epidermal cancer). As to conditions: footnote b; ref Xiang et al.[22]; cited from earlier work.
The subject of data set [9] is PC-3 cells. Put plainly: Cell cycle analysis (PI staining, flow cytometry). Type of data set: cell-based, human. As to conditions: PC-3, 48 h.
Method: The cultured cells were treated with these compounds at the indicated concentrations for 48 h, then harvested, and analyzed by flow cytometry. […] Each experiment was performed in triplicate.
The cell cycle arrest on PC-3 and HepG2 cells was detected with PI staining assay (Sigma) as described previously[19]. After treatment with samples at the set concentrations for 48 h, cells were centrifuged and fixed in 70% ethanol at 4 °C refrigerator 12 h and then resuspended in PBS (100 μL RNase A and 400 μL PI). Cellular DNA content was measured using a FACSCalibur flow cytometer with Modfit LT 3.0 software. Twenty thousand cells were collected per sample. Mean values are presented from three independent experiments.
Data set [10] has as its system CHO (Chinese hamster ovary). The conditions noted are these: footnote b; ref Xiang et al.[22]; cited from earlier work.
[11] abbreviates: mean ± SD, read-out: IC50 HepG2.
Setting [12] is: read-out: IC50 HepG2 (Table 3, C13-methylene modified derivatives).
Where [13] appears, read: read-out: IC50 PC-3 (Table 3, C13-methylene modified derivatives).

The structures appear in SMILES notation. Read-outs that look alike come from different tables or passages of the source.

As to `C=C1C(=O)OC2CC3(C)C(=CC12)C(C)CCC3OC(C)=O` (stereo not drawn) [1a, 1β-ethanoyl alantolactone], the concentration for half-maximal inhibition (IC50) in data set [1] (setting [11]) was determined as 6.3 ± 1.3 µM; in [2] it was 10.3 ± 1.8 µM; in data set [3], 8.2 ± 1 µM; in data set [4] (mean ± SD, read-out: IC50 PC-3) it was 8.1 ± 0.3 µM; in [5], 10.3 ± 1.8 µM; in data set [6], 12.3 ± 1.6 µM.

Take `C=C1C(=O)O[C@@H]2C[C@]3(C)C(=C[C@H]12)[C@@H](C)CC[C@H]3OC(=O)c1ccccc1` [1b, 1β-benzoyl alantolactone]: the IC50 in data set [1] (setting [11]) was above 40 µM; in [2] it was above 40 µM; in data set [3], 25.5 ± 3.2 µM; in data set [4] (mean ± SD, read-out: IC50 PC-3) it was above 40 µM.

Consider `C=C1C(=O)O[C@@H]2C[C@]3(C)C(=C[C@H]12)[C@@H](C)CC[C@H]3OC(=O)c1ccc(F)cc1` [1c, 1β-(4-fluorobenzoyl) alantolactone], for which the IC50 in data set [1] (setting [11]) was above 40 µM; in data set [2], above 40 µM; in [3] it was above 40 µM; in data set [4] (mean ± SD, read-out: IC50 PC-3) it was above 40 µM.

Regarding `C=C1C(=O)O[C@@H]2C[C@]3(C)C(=C[C@H]12)[C@@H](C)CC[C@H]3OC(=O)c1ccc([N+](=O)[O-])cc1` [1d], the IC50 in data set [1] (setting [11]) is 23.5 ± 3.6 µM; in data set [2], above 40 µM; in data set [3] it was above 40 µM; in [4] (mean ± SD, read-out: IC50 PC-3) it was above 40 µM.

With `C=C1C(=O)O[C@@H]2C[C@]3(C)C(=C[C@H]12)[C@@H](C)CC[C@H]3OC(=O)c1ccc(OC)cc1` [1e], the 50% inhibitory concentration (IC50) was 34.1 ± 4.8 µM in data set [1] (setting [11]); above 40 µM in [2]; above 40 µM in [3]; above 40 µM in data set [4] (mean ± SD, read-out: IC50 PC-3).

For `C=C1C(=O)O[C@@H]2C[C@]3(C)C(=C[C@H]12)[C@@H](C)CC[C@H]3OC(=O)/C=C/c1ccc(Br)cc1` [1f, 1β-(4-bromocinnamoyl) alantolactone], the IC50 in [1] (setting [11]) was 12.5 ± 2.2 µM; in data set [2] it was above 40 µM; in data set [3], above 40 µM; in [4] (mean ± SD, read-out: IC50 PC-3), 18.7 ± 5.2 µM.

On to `C=C1C(=O)O[C@@H]2C[C@]3(C)C(=C[C@H]12)[C@@H](C)CC[C@H]3OC(=O)/C=C/c1ccc(C(F)(F)F)cc1` [1g, 1β-(4-trifluoromethyl) alantolactone], for which the half-maximal inhibitory concentration (IC50) is 15.2 ± 3.8 µM in data set [1] (setting [11]); above 40 µM in data set [2]; 10 ± 2.1 µM in data set [3]; 11.8 ± 2.8 µM in data set [4] (mean ± SD, read-out: IC50 PC-3).

With `C=C1C(=O)O[C@@H]2C[C@]3(C)C(=C[C@H]12)[C@@H](C)CC[C@H]3OC(=O)CCC(=O)O` [1h, 1β-carboxypropionyl alantolactone], the concentration for half-maximal inhibition (IC50) in data set [1] (setting [11]) is above 40 µM; in data set [2] it was above 40 µM; in data set [3] it was above 40 µM; in [4] (mean ± SD, read-out: IC50 PC-3), above 40 µM; in data set [6] it was 39.5 ± 2.5 µM.

For the molecule `CC1CCC(OC(=O)c2ccccc2)C2(C)CC3OC(=O)C4(CCC(=O)O4)C3C=C12` (stereo not drawn) [1j, 1β-benzoyl alanto-spirobislactone], the half-maximal inhibitory concentration (IC50) in data set [1] (setting [12]) and in data set [4] (setting [13]) was above 40 µM in each case.

Take `Cc1ccc(C2=NO[C@]3(C2)C(=O)O[C@@H]2C[C@@]4(C)C(=O)CC[C@H](C)C4=C[C@@H]23)cc1` [1k, (11 S)-16-(p-methylphenyl)-spiroisoxazoline-1-carbonyl-alantolactone]: the IC50 in data set [1] (setting [12]) and in data set [4] (setting [13]) was above 40 µM in each case.

Take `C[C@H]1CCC(=O)[C@]2(C)C[C@H]3OC(=O)[C@]4(CC(c5ccc([N+](=O)[O-])cc5)=NO4)[C@H]3C=C12` [1l, (11 S)-16-(p-nitrophenyl)-spiroisoxazoline-1-carbonyl-alantolactone]: the IC50 in [1] (setting [12]) and in [4] (setting [13]) was above 40 µM each time.

Turning to `C[C@H]1CCC(=O)[C@]2(C)C[C@H]3OC(=O)[C@]4(CC(c5ccccc5[N+](=O)[O-])=NO4)[C@H]3C=C12` [1m, (11 S)-16-(o-nitrophenyl)-spiroisoxazoline-1-carbonyl-alantolactone], the half-inhibitory concentration (IC50) in data set [1] (setting [12]) and in data set [4] (setting [13]) was above 40 µM each time.

For `C[C@H]1CCC(=O)[C@]2(C)C[C@H]3OC(=O)[C@]4(CC(c5ccc(Cl)cc5)=NO4)[C@H]3C=C12` [1n, (11 S)-16-(p-chlorophenyl)-spiroisoxazoline-1-carbonyl-alantolactone], the IC50 in [1] (setting [12]) and in data set [4] (setting [13]) was above 40 µM in each case.

With `COc1ccc(C2=NO[C@]3(C2)C(=O)O[C@@H]2C[C@@]4(C)C(=O)CC[C@H](C)C4=C[C@@H]23)cc1` [1o, (11 S)-16-(p-methoxyphenyl)-spiroisoxazoline-1-carbonyl-alantolactone], the 50% inhibitory concentration (IC50) in data set [1] (setting [12]) and in data set [4] (setting [13]) was above 40 µM in each case.

`COc1ccc(Cl)cc1C1=NO[C@]2(C1)C(=O)O[C@@H]1C[C@@]3(C)C(=O)CC[C@H](C)C3=C[C@@H]12` [1p, (11 S)-16-(5-chloro-2-methoxylphenyl)-spiroisoxazoline-1-carbonyl-alantolactone]: the IC50 in [1] (setting [12]) and in data set [4] (setting [13]) was above 40 µM throughout.

Regarding `COc1cc(C2=NO[C@]3(C2)C(=O)O[C@@H]2C[C@@]4(C)C(=O)CC[C@H](C)C4=C[C@@H]23)c(Cl)c(OC)c1OC` [1q, (11 S)-16-(2-chloro-3,4,5-trimethoxylphenyl)-spiroisoxazoline-1-carbonyl-alantolactone], the IC50 in data set [1] (setting [12]) and in data set [4] (setting [13]) was above 40 µM throughout.

In the case of `CC1CCC(O)C2(C)CC3OC(=O)C(C)C3C=C12` (stereo not drawn) [1r, (11 S)-1β-hydroxy alantolactone derivative], the IC50 in [1] (setting [12]) and in [4] (setting [13]) was above 50 µM in each case. For the same molecule, in [7] (SAR statement on Tables 2 and 3), the “cytotoxic activity in words” value was “loss of cytotoxic activity”.

As for `C=C1C(=O)O[C@@H]2C[C@]3(C)C(=C(C)CC[C@H]3OC(C)=O)C[C@H]12` [2a, 1β-ethanoyl ivangustin], the IC50 in data set [1] (setting [11]) is above 40 µM; in data set [2], above 40 µM; in data set [3], 32.3 ± 2 µM; in data set [4] (mean ± SD, read-out: IC50 PC-3) it was 28.9 ± 4.5 µM.

For the molecule `C=C1C(=O)O[C@@H]2C[C@]3(C)C(=C(C)CC[C@H]3OC(=O)c3ccccc3)C[C@H]12` [2b, 1β-benzoyl ivangustin], the 50% inhibitory concentration (IC50) in data set [1] (setting [11]) was above 40 µM; in data set [2], above 40 µM; in data set [3] it was 27.9 ± 2.5 µM; in [4] (mean ± SD, read-out: IC50 PC-3), above 40 µM.

`C=C1C(=O)O[C@@H]2C[C@]3(C)C(=C(C)CC[C@H]3OC(=O)c3ccc(F)cc3)C[C@H]12` [2c, 1β-(4-fluorobenzoyl) ivangustin]: the IC50 was above 40 µM in data set [1] (setting [11]); above 40 µM in data set [2]; above 40 µM in [3]; above 40 µM in data set [4] (mean ± SD, read-out: IC50 PC-3).

In the case of `C=C1C(=O)O[C@@H]2C[C@@]3(C)C(=O)CCC(C)=C3C[C@H]12` [2d, 1-carbonyl-ivangustin], the IC50 is 7.7 ± 1.5 µM in [1] (setting [11]); 14.1 ± 2.9 µM in [2]; 8.6 ± 1.4 µM in data set [3]; 7 ± 2.1 µM in [4] (mean ± SD, read-out: IC50 PC-3); 12.1 ± 5.2 µM in data set [5]; 10.5 ± 0.5 µM in data set [6].

Take `C=C1C(=O)OC2CC3(C)C(=CC12)C(C)CCC3O` (stereo not drawn) [compound 1, 1β-hydroxyalantolactone]: the IC50 in data set [1] (setting [11]) is 5.2 ± 0.1 µM; in data set [3] it was 3.2 ± 0.8 µM; in [4] (mean ± SD, read-out: IC50 PC-3) it was 4.5 ± 0.7 µM; in [8] it was 3.3 ± 0.2 µM; in data set [7] (Homo sapiens, range over four cancer cell lines, read-out: IC50 range against HeLa, PC-3, HEp-2 and HepG2 cells), 3.2 to 6.4 µM; in [6], 9.2 ± 0.1 µM. For the same molecule, the half-inhibitory concentration (IC50) in [10] was 6.4 ± 0.1 µM. Besides, the “%G0/G1” value in data set [9] (1.0 μM) came to 51.2%; in data set [9] (2.0 μM) it was 49.3%; in data set [9] (4.0 μM) it was 45.8%. Moreover, the entries for the “%G2/M” value in data set [9] (1.0 μM), in [9] (2.0 μM) and in data set [9] (4.0 μM) were 17.1%, 16.7% and 18.0%, respectively. Besides, the “%S” value in data set [9] (1.0 μM) was 31.7%; in [9] (2.0 μM) it was 34.0%; in [9] (4.0 μM), 36.2%.
